This series in a line: recombinant barcode read abundance after kanamycin selection (control-corrected) (log10(CPM+1)); higher = more efficient recombination; sequences stand for … in AGTGCAGAGAAAATCGGCCAGTTTTCTCTGCCTGCAGTCCGCATGCCGT…AGATTTATGCAGCGGACTGCCTTTCTCCCAAAGTGATAAACCGGACAGTATCATGGACCGGTTTTCCCGGTAATCCGTATTTGCAAGGTTGGTTTCACT; site = the 11-nt target. A digest of the protocol: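 IS621 bridge RNA target-binding loops were paired with targets in a pooled library tested in E. coli. After co-electroporation with a donor plasmid, cells were plated in two replicates on chloramphenicol/ampicillin LB agar (control) and on chloramphenicol/ampicillin/kanamycin carrying 0.1 mM IPTG. Barcodes at recombinant junctions were counted as counts per million, averaged and control-corrected to give recombination efficiency. Values are log10(CPM+1).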
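Note: IS621 recombinase and bridge RNA in Escherichia coli cells.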

Take “ATGACCTCTTGGGTTCTAACCTGTTGCCT (site ATGTCCTCTAG)”: the “recombinant barcode read abundance (log10)” value amounted to 0.0902. Take “ATGAGAACTTGGGTTCTAACCTGTTGCCG (site ATGAGAACTAG)”: the “recombinant barcode read abundance (log10)” value turned out to be 1.58. In the case of “ATGAGAACTTGGGTTCTAACCTGTTGCCG (site ATGAGAACTCG)” it was 1.05; in that of “ATGAGGACTTGGGTTCTAACCTGTTGCGT (site ATGAGGACTAC)”, 2.45; in that of “ATGAGGACTTGGGTTCTAACCTGTTGCGT (site CACCCCTCTCG)”, 0.14. Consider “ATGAGGCCTTGGGTTCTAACCTGTTGCCT (site ATGAGGCCTAG)”, for which the “recombinant barcode read abundance (log10)” value came out at 0.858. Turning to “ATGAGGCCTTGGGTTCTAACCTGTTGCCT (site CTGAGGCCTAG)”, the “recombinant barcode read abundance (log10)” value was 0.115. The same measure for “ATGAGGCCTTGGGTTCTAACCTGTTGCCT (site GTGAGGCCTAG)”: 0.173. The same measure for “ATGAGGCCTTGGGTTCTAACCTGTTGCCT (site TTGAGGCCTAG)”: 0.209; for “ATGCAAGCTTGGGTTCTAACCTGTTGCCT (site ATGCAAACTAG)”: 0.898. For “ATGCAAGCTTGGGTTCTAACCTGTTGCCT (site ATGCAACCTAG)”, the “recombinant barcode read abundance (log10)” value was 0.0657.

For the sequence “ATGCAAGCTTGGGTTCTAACCTGTTGCCT (site ATGCAAGCTAG)”, the “recombinant barcode read abundance (log10)” value worked out at 1.48. As to “ATGCAAGCTTGGGTTCTAACCTGTTGCCT (site ATGCAATCTAG)”, the “recombinant barcode read abundance (log10)” value was found to be 0.234. As for “ATGCATCCTTGGGTTCTAACCTGTTGCCT (site AAGCATCCTAG)”, the “recombinant barcode read abundance (log10)” value was found to be 0.0651. “ATGCATCCTTGGGTTCTAACCTGTTGCCT (site ACGCATCCTAG)”: the “recombinant barcode read abundance (log10)” value worked out at 0.0924. In the case of “ATGCATCCTTGGGTTCTAACCTGTTGCCT (site AGGCATCCTAG)” it was 0; in that of “ATGCATCCTTGGGTTCTAACCTGTTGCCT (site ATGCATCCTAG)”, 1.99; in that of “ATGCCATCTTGGGTTCTAACCTGTTGCCT (site ATACCATCTAG)”, 0.434. On to “ATGCCATCTTGGGTTCTAACCTGTTGCCT (site ATCCCATCTAG)”, for which the “recombinant barcode read abundance (log10)” value was found to be 0.885. “ATGCCATCTTGGGTTCTAACCTGTTGCCT (site ATGCCATCTAG)”: the “recombinant barcode read abundance (log10)” value was 0.503. “ATGCCATCTTGGGTTCTAACCTGTTGCCT (site ATTCCATCTAG)”: the “recombinant barcode read abundance (log10)” value amounted to 0.149. As to “ATGGACACTTGGGTTCTAACCTGTTGCGT (site ATGGACACTAC)”, the “recombinant barcode read abundance (log10)” value was determined as 1.93.

Take “ATGGACACTTGGGTTCTAACCTGTTGCGT (site GACTGGCCTCT)”: the “recombinant barcode read abundance (log10)” value was found to be 0.133.

Turning to “ATGGCGCCTTGGGTTCTAACCTGTTGCCT (site AAGGCGCCTAG)”, the “recombinant barcode read abundance (log10)” value came to 0.296.

As to “ATGGCGCCTTGGGTTCTAACCTGTTGCCT (site ACGGCGCCTAG)”, the “recombinant barcode read abundance (log10)” value came out at 0.846. Take “ATGGCGCCTTGGGTTCTAACCTGTTGCCT (site AGGGCGCCTAG)”: the “recombinant barcode read abundance (log10)” value came out at 0.183. Turning to “ATGGCGCCTTGGGTTCTAACCTGTTGCCT (site ATGGCGCCTAG)”, the “recombinant barcode read abundance (log10)” value was found to be 0.856. Take “ATTAAGTCTTGGGTTCTAACCTGTTGCCT (site AATAAGTCTAG)”: the “recombinant barcode read abundance (log10)” value amounted to 0.0662. In the case of “ATTAAGTCTTGGGTTCTAACCTGTTGCCT (site ACTAAGTCTAG)” it was 0.08. As for “ATTAAGTCTTGGGTTCTAACCTGTTGCCT (site AGTAAGTCTAG)”, the “recombinant barcode read abundance (log10)” value turned out to be 0.0808. For the sequence “ATTAAGTCTTGGGTTCTAACCTGTTGCCT (site ATTAAGTCTAG)”, the “recombinant barcode read abundance (log10)” value came out at 0.359. “ATTAGGACTTGGGTTCTAACCTGTTGCTG (site ATTAGGACTCA)”: the “recombinant barcode read abundance (log10)” value was 2.12.

These data come from the supplement of paper PMC11208160.
